Measurements from patent US20070161637A1, “Substituted pyridin-2-ylamine analogues” (Neurogen Corporation, priority 2003, published 2007).

Biological target: T1, human capsaicin receptor (Homo sapiens, UniProt Q8NER1)
T1 construct: transfected with the pBK-CMV expression construct encoding the full length human capsaicin receptor; expressed in transfected cells; host or cells: HEK293, stably transfected clonal lines, plasmid pBK-CMV
Test: Calcium mobilization assay, determination of antagonist activity (Example 6)
Format: cell-based
Conditions: concentration giving 50% decrease in the fluorescence response of cells expressing human capsaicin receptor exposed to capsaicin
Protocol: A cDNA encoding full length human capsaicin receptor (SEQ ID NO:1, 2 or 3 of U.S. Pat. No. 6,482,611) was subcloned in the plasmid pBK-CMV (Stratagene, La Jolla, Calif.) for recombinant expression in mammalian cells.
Human embryonic kidney (HEK293) cells were transfected with the pBK-CMV expression construct encoding the full length human capsaicin receptor using standard methods. The transfected cells were selected for two weeks in media containing G418 (400 μg/ml) to obtain a pool of stably transfected cells. Independent clones were isolated from this pool by limiting dilution to obtain clonal stable cell lines for use in subsequent experiments.
Cells transfected with expression plasmids (as described in Example 4) and thereby expressing human capsaicin receptor are seeded and grown to 70-90% confluency in FALCON black-walled, clear-bottomed 96-well plates (#3904, BECTON-DICKINSON, Franklin Lakes, N.J.). The culture medium is emptied from the 96 well plates and FLUO-3 AM calcium sensitive dye (Molecular Probes, Eugene, Oreg.) is added to each well (dye solution: 1 mg FLUO-3 AM, 440 μL DMSO and 440 μl 20% pluronic acid in DMSO, diluted 1:250 in Krebs-Ringer HEPES (KRH) buffer (25 mM HEPES, 5 mM KCl, 0.96 mM NaH2PO4, 1 mM MgSO4, 2 mM CaCl2, 5 mM glucose, 1 mM probenecid, pH 7.4), 50 μl diluted solution per well). Plates are covered with aluminum foil and incubated at 37° C. for 1-2 hours in an environment containing 5% CO2. After the incubation, the dye is emptied from the plates, and the cells are washed once with KRH buffer, and resuspended in KRH buffer.
To measure the ability of a test compound to agonize or antagonize a calcium mobilization response in cells expressing capsaicin receptors to capsaicin or other vanilloid agonist, the EC50 of the agonist capsaicin is first determined. An additional 20 μl of KRH buffer and 1 μl DMSO is added to each well of cells, prepared as described above. 100 μl capsaicin in KRH buffer is automatically transferred by the FLIPR instrument to each well. Capsaicin-induced calcium mobilization is monitored using either FLUOROSKAN ASCENT (Labsystems; Franklin, Mass.) or FLIPR (fluorometric imaging plate reader system; Molecular Devices, Sunnyvale, Calif.) instruments. Data obtained between 30 and 60 seconds after agonist application are used to generate an 8-point concentration response curve, with final capsaicin concentrations of 1 nM to 3 μM. […] software (Synergy Software, Reading, Pa.) is used to fit the data to the equation: y=a*(1/(1+(b/x)^c)) to determine the 50% excitatory concentration (EC50) for the response. In this equation, y is the maximum fluorescence signal, x is the concentration of the agonist or antagonist (in this case, capsaicin), a is the Emax, b corresponds to the EC50 value and c is the Hill coefficient. Determination Agonist Activity
Test compounds are dissolved in DMSO, diluted in 20 μl KRH buffer so that the final concentration of test compounds in the assay well is between 1 μM and 5 μM, and added to cells prepared as described above. The 96 well plates containing prepared cells and test compounds are incubated in the dark, at room temperature for 0.5 to 6 hours. It is important that the incubation not continue beyond 6 hours. Just prior to determining the fluorescence response, 100 μl capsaicin in KRH buffer at twice the EC50 concentration determined as described above is automatically added by the FLIPR instrument to each well of the 96 well plate for a final sample volume of 200 μl and a final capsaicin concentration equal to the EC50. The final concentration of test compounds in the assay wells is between 1 μM and 5 μM.

T1 sequence (Q8NER1 whole entry): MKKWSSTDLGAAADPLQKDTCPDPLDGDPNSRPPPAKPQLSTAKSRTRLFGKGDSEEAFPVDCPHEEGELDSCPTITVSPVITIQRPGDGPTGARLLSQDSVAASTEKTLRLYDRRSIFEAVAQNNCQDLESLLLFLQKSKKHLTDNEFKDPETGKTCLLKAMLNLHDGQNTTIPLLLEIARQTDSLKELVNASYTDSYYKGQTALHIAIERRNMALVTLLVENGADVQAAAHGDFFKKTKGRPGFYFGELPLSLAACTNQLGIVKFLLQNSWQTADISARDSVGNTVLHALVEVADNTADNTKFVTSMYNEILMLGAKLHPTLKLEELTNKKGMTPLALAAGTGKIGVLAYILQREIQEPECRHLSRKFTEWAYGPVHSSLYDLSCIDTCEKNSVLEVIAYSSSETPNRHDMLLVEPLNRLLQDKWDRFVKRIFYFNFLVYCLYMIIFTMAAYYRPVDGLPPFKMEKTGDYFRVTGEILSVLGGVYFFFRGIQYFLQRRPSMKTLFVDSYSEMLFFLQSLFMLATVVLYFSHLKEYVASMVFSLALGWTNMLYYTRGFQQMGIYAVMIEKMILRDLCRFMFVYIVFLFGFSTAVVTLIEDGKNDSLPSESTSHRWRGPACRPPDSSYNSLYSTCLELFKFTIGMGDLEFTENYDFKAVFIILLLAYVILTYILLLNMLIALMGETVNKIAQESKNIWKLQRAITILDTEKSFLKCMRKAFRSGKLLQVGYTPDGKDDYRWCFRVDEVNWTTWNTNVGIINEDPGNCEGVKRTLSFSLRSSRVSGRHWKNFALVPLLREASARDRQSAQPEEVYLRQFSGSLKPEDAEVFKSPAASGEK

| IC50 | Structure (SMILES) |
| --- | --- |
| ≤ 1000 nM | CC(C)(C)c1ccc(Nc2nc(NCc3ccccc3Cl)nc(NCc3ccccc3Cl)n2)cc1 [Compound 54, N-(4-tert-Butyl-phenyl)-N′,N″-bis-(2-chloro-benzyl)-[1,3,5]triazine-2,4,6-triamine] |
| ≤ 1000 nM | FC(F)(F)c1ccc(Nc2nc(OCc3ccccc3C(F)(F)F)nc(N3CCOCC3)n2)cc1 [Compound 21, [4-Morpholin-4-yl-6-(2-trifluoromethyl-benzyloxy)-[1,3,5]triazin-2-yl]-(4-trifluoromethyl-phenyl)-amine] |
| ≤ 1000 nM | CCN(CC)c1nc(Nc2ccc(C(F)(F)F)cc2)nc(OCc2ccccc2C(F)(F)F)n1 [Compound 59, N,N-Diethyl-6-(2-trifluoromethyl-benzyloxy)-N′-(4-trifluoromethyl-phenyl)-[1,3,5]triazine-2,4-diamine] |
| ≤ 1000 nM | CC(C)(C)c1ccc(Nc2cc(NCc3ccc(Cl)cc3)ncn2)cc1 [Compound 52, N-(4-tert-Butyl-phenyl)-N′-(4-chloro-benzyl)-pyrimidine-4,6-diamine] |
| ≤ 1000 nM | FC(F)(F)c1ccc(Nc2nc(OCc3ccccc3C(F)(F)F)nc(-c3cccnc3)n2)cc1 [Compound 23, [4-Pyridin-3-yl-6-(2-trifluoromethyl-benzyloxy)-[1,3,5]triazin-2-yl]-(4-trifluoromethyl-phenyl)-amine] |
| ≤ 1000 nM | CC(C)(C)c1ccc(Nc2cc(NCc3cccc(F)c3)ncn2)cc1 [Compound 50, N-(4-tert-Butyl-phenyl)-N′-(3-fluoro-benzyl)-pyrimidine-4,6-diamine] |
| ≤ 1000 nM | CC(C)(C)c1ccc(Nc2nc(Cl)nc(NCc3ccccc3Cl)n2)cc1 [Compound 33, N-(4-tert-Butyl-phenyl)-6-chloro-N′-(2-chloro-benzyl)-[1,3,5]triazine-2,4-diamine] |
| ≤ 1000 nM | Cc1nc(NCc2ccccc2Cl)nc(Nc2ccc(C(C)(C)C)cc2)n1 [Compound 40, N-(4-tert-Butyl-phenyl)-N′-(2-chloro-benzyl)-6-methyl-[1,3,5]triazine-2,4-diamine] |
| ≤ 1000 nM | CCOc1nc(Nc2ccc(C(F)(F)F)cc2)nc(OCc2ccccc2C(F)(F)F)n1 [Compound 20, [4-Ethoxy-6-(2-trifluoromethyl-benzyloxy)-[1,3,5]triazin-2-yl]-(4-trifluoromethyl-phenyl)-amine] |
| ≤ 1000 nM | CC(C)(C)c1ccc(Nc2nc(Cl)nc(NCc3ccccc3F)n2)cc1 [Compound 34, N-(4-tert-Butyl-phenyl)-6-chloro-N′-(2-fluoro-benzyl)-[1,3,5]triazine-2,4-diamine] |
| ≤ 1000 nM | COc1ccc(CNc2cc(Nc3ccc(C(C)(C)C)cc3)ncn2)cc1 [Compound 53, N-(4-tert-Butyl-phenyl)-N′-(4-methoxy-benzyl)-pyrimidine-4,6-diamine] |
| ≤ 1000 nM | CNc1nc(NCc2ccccc2Cl)nc(Nc2ccc(C(C)(C)C)cc2)n1 [Compound 41, N-(4-tert-Butyl-phenyl)-N′-(2-chloro-benzyl)-N″-methyl-[1,3,5]triazine-2,4,6-triamine] |
| ≤ 1000 nM | COc1ccccc1COc1nc(Cl)nc(Nc2ccc(C(C)(C)C)cc2)n1 [Compound 3, (4-tert-Butyl-phenyl)-[4-chloro-6-(2-methoxy-benzyloxy)-[1,3,5]triazin-2-yl]-amine] |
| ≤ 1000 nM | COc1ccccc1CNc1nc(Cl)nc(Nc2ccc(C(C)(C)C)cc2)n1 [Compound 35, N-(4-tert-Butyl-phenyl)-6-chloro-N′-(2-methoxy-benzyl)-[1,3,5]triazine-2,4-diamine] |
| ≤ 1000 nM | CC(C)(O)CCNc1nc(Nc2ccc(C(F)(F)F)cc2)nc(OCc2ccccc2C(F)(F)F)n1 [Compound 24, 2-Methyl-4-[4-(2-trifluoromethyl-benzyloxy)-6-(4-trifluoromethyl-phenylamino)-[1,3,5]triazin-2-ylamino]-butan-2-ol] |
| ≤ 1000 nM | FC(F)(F)c1ccc(Nc2nc(NCCN3CCOCC3)nc(OCc3ccccc3C(F)(F)F)n2)cc1 [Compound 28, N-(2-Morpholin-4-yl-ethyl)-6-(2-trifluoromethyl-benzyloxy)-N′-(4-trifluoromethyl-phenyl)-[1,3,5]triazine-2,4-diamine] |
